Reference: US12195372B2 (priority 2018, dated 2025)
Like-named read-outs stand apart in the source and are kept apart here.

Conditions: room temperature (20-35° C.), atmospheric pressure

Substance: benzalkonium-perchlorate [BNZ-ClO4]
- ClO4 equilibrium conc. (matrix: deionized water): 0.20 mM
- ClO4 equilibrium conc. (matrix: ethanol): 231 mM
- ClO4 equilibrium conc. (matrix: salt water): 0.81 mM
